Assay results from US20100240611A1, “METHODS FOR PREPARING DPP-IV INHIBITOR COMPOUNDS” (priority 2009, published 2010).

Target: T1, DPP-IV (Homo sapiens, UniProt P27487)
T1 construct: in an in vivo protocol study in humans; from tissue; host or cells: human subjects (in vivo)
Experiment: in vivo protocol study in humans: selectivity of DPP-IV inhibition over other dipeptidyl peptidases
Conditions: other dipeptidyl peptidases named in the block: DPP-VII, DPP-VIII, DPP-IX, FAP

T1 sequence (P27487 whole entry): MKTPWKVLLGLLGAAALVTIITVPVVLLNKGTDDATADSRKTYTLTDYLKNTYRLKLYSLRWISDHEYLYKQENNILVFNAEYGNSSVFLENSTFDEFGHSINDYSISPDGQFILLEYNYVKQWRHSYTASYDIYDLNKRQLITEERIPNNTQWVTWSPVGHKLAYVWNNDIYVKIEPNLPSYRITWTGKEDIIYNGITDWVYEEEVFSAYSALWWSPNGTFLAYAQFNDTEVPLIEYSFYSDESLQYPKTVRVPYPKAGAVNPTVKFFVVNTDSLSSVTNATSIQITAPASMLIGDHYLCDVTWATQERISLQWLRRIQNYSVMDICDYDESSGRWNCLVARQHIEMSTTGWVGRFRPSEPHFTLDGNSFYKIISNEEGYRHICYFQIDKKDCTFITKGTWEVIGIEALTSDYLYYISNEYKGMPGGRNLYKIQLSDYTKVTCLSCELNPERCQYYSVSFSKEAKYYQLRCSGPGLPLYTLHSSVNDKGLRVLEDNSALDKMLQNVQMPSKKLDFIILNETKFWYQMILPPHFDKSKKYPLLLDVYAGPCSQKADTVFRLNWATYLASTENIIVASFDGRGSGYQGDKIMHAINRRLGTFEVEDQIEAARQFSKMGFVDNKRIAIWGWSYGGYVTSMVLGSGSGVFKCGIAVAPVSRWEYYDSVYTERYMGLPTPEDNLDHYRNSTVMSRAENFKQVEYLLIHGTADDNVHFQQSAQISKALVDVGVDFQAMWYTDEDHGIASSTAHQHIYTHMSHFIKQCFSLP

In the case of `O=C(CN[C@@H]1CCNC1)N1CCC[C@H]1B(O)O` [compound of formula (I), dutogliptin], the “selectivity for inhibition of DPP-IV over the other amino dipeptidyl peptidases” value is reported as “maintained selectivity for inhibition of DPP-IV over the other amino dipeptidyl peptidases”.
